Data: patent US20250161340A1, “COMPOSITION FOR PREVENTING, ALLEVIATING OR TREATING DRY EYE SYNDROME OR MEIBOMIAN GLAND DYSFUNCTION” (SEOUL NATIONAL UNIVERSITY HOSPITAL, priority 2022, published 2025)

Columns and labels:
meibomian glands = assay: Area of eyelid meibomian glands, Sjögren's syndrome-related model; type: in vivo, mouse; conditions: 12-week-old NOD.B10.H2^b mice; 5 μL of 1,5DQ (50 μg/μL) twice a day for 5 days; vs PBS
Protocol: 12-week-old NOD.B10.H2^b mice were divided into two groups, and (i) 5 μL of 1,5DQ (50 μg/μL) or (ii) 5 μL of PBS was instilled into both eyes of each mouse twice a day for 5 days. The area of the meibomian glands was confirmed by removing an eyelid from the mouse model and then measuring the area of 3 mm at the center.

[1] = system: human corneal epithelial cells; assay: MTT cell viability of corneal epithelial cells, normal or hyperosmotic environment; type: cell-based; conditions: 24 hours
Protocol: Corneal epithelial cells primarily cultured from human corneal limbal cells were treated with 100 mM NaCl for exposure to a hyperosmotic environment, and treated with 0, 10, 25, 50, or 100 μg/mL of 1,5DQ for 24 hours, and then cell viability was evaluated through MTT assay.

[2] = system: stearoyl-CoA desaturase (SCD) 1; assay: SCD1 transcription in eyelids by real-time RT PCR; type: in vivo, mouse; conditions: 12-week-old NOD.B10.H2^b mice; 5 μL of 1,5DQ (50 μg/μL) twice a day for 5 days; vs PBS
Protocol: (§1) 12-week-old NOD.B10.H2^b mice were divided into two groups, and (i) 5 μL of 1,5DQ (50 μg/μL) or (ii) 5 μL of PBS was instilled into both eyes of each mouse twice a day for 5 days. After removing the lower and upper eyelids of each mouse model, the expression level of meibomian gland differentiation factors in the eyelids was determined using real-time RT PCR. The meibomian glands are composed of sebocytes, and the transcription levels of stearoyl-CoA desaturase (SCD) 1 and SCD3, which are sebocyte-specific genes, were measured.

interleukin 1β (IL-1β) = assay: IL-1β transcripts in lacrimal glands by real-time RT PCR, desiccating stress model; type: in vivo, mouse; conditions: BALB/c mice, 5 μL of 1,5DQ (50 μg/μL) twice a day for 5 days, vs PBS
Protocol: Desiccating stress-induced 8-week-old BALB/c mice were divided into two groups, and (i) 5 μL of 1,5DQ (50 μg/μL) or (ii) 5 μL of PBS was instilled into both eyes of each mouse twice a day for 5 days. The lacrimal glands of a mouse were classified into an extraorbital lacrimal gland and an intraorbital lacrimal gland, and the degree of inflammatory activation in each lacrimal gland was evaluated by measuring the levels of transcripts of inflammatory cytokine interleukin 1β (IL-1β) using real-time RT PCR.

SCD3 = SCD3 transcription in eyelids by real-time RT PCR; type: in vivo, mouse; conditions: 12-week-old NOD.B10.H2^b mice; 5 μL of 1,5DQ (50 μg/μL) twice a day for 5 days; vs PBS
Protocol: as §1

[3] = system: CD3-positive immune cells; assay: CD3 immunostaining of lacrimal glands, Sjögren's syndrome-related model; type: in vivo, mouse; conditions: 12-week-old NOD.B10.H2^b mice; 5 μL of 1,5DQ (50 μg/μL) twice a day for 5 days; vs PBS
Protocol: Sjögren's syndrome-related inflammatory dry eye syndrome mice, i.e., NOD.B10.H2^b mice, typically show increased infiltration of inflammatory cells into the lacrimal glands between 11 to 14 weeks old. 12-week-old NOD.B10.H2^b mice were divided into two groups, and (i) 5 μL of 1,5DQ (50 μg/μL) or (ii) 5 μL of PBS was instilled into both eyes of each mouse twice a day for 5 days, and then the level of inflammatory cell infiltration in the lacrimal glands was evaluated. In addition, the extraorbital and intraorbital lacrimal glands, which had been removed from each mouse and sectioned, were immunostained with CD3, T cells were observed using the stained CD3 under a microscope (FIGS. 4A and 4B) and counted, and then the level of immune cell infiltration in the lacrimal glands was quantified (FIG. 4C).

[4] = system: Sjögren's syndrome-related inflammatory dry eye syndrome mouse models (NOD.B10.H2^b mice); assay: Sjögren's syndrome-related inflammatory dry eye syndrome mouse model: corneal epithelial defects and tear secretion; type: in vivo; conditions: for corneal epithelial defects: vs PBS or 5 μg/μL
Protocol: Two types of dry eye syndrome mouse models were used to examine whether 1,5DQ instillation is effective for dry eye syndrome. The first mouse model is a desiccating stress model, and BALB/c mice were reared in a dry environment (humidity: 20 to 30%) while administering a drug that suppresses tear secretion (scopolamine hydrobromide 0.5 mg/0.2 mL) intraperitoneally three times a day. The second mouse model is a Sjögren's syndrome-related inflammatory dry eye syndrome mouse model, and NOD.B10.H2^b mice were used. In the NOD.B10.H2^b mice, under normal environments, inflammation in the lacrimal glands and on the ocular surface spontaneously increases at about 11 weeks, leading to destruction of the lacrimal glands and ocular surface, decreased tear secretion, and severe dry eye syndrome accompanied by ocular surface epithelial defects progresses between 11 and 14 weeks.
(§2) In each of the two types of dry eye syndrome mouse models, the dry eye treatment effect of 1,5DQ instillation was investigated. The degree of corneal epithelial defects was measured by instilling a drop of the Lissamine green vital dye on the cornea and then observing the degree of stained corneal epithelial defects under a microscope and clinical scoring the same. The amount of tear secretion was evaluated by placing a thread soaked with a phenol red dye on the outer canthus of the mouse for 1 minute and measuring the length moistened by tears (length of the dyed area).
As described above, as Sjögren's syndrome-related inflammatory dry eye syndrome mice, NOD.B10.H2^b mice were used. 12-week-old mice were divided into two groups, and (i) 5 μL of 1,5DQ (50 μg/μL) or (ii) 5 μL of PBS was instilled into both eyes of each mouse twice a day for 5 days, and then the degree of corneal epithelial defects and the amount of tear secretion were evaluated.
Accordingly, the dry eye syndrome treatment effect according to the 1,5DQ treatment concentration was investigated. 12-week-old NOD.B10.H2^b mice (Sjögren's syndrome-related inflammatory dry eye syndrome mouse models) were divided into four groups, and (i) 5 μL of PBS, (ii) 5 μL of 1,5DQ (5 μg/μL), (iii) 5 μL of 1,5DQ (50 μg/μL), or (iv) 5 μL of 1,5DQ (500 μg/μL) was instilled into both eyes twice a day for 5 days, and then the degree of corneal epithelial defects and the amount of tear secretion were evaluated.

[5] = system: matrix metallopeptidase 9 (MMP-9); assay: MMP-9 transcripts in eyelids (meibomian glands) by real-time RT PCR, Sjögren's syndrome-related model; type: in vivo, mouse; conditions: 12-week-old NOD.B10.H2^b mice; 5 μL of 1,5DQ (50 μg/μL) twice a day for 5 days; vs PBS
Protocol: (§3) 12-week-old NOD.B10.H2^b mice were divided into two groups, and (i) 5 μL of 1,5DQ (50 μg/μL) or (ii) 5 μL of PBS was instilled into both eyes of each mouse twice a day for 5 days. The degree of inflammation activation in the eyelids was evaluated by measuring the levels of transcripts of the inflammatory cytokines IL-6 and tumor necrosis factor-α (TNF-α), and another inflammatory factor, matrix metallopeptidase 9 (MMP-9), using real-time RT PCR.

[6] = system: dry eye syndrome mouse models undergoing desiccating stress (BALB/c mice); assay: Desiccating stress dry eye syndrome mouse model: corneal epithelial defects (Lissamine green) and tear secretion (phenol red thread); type: in vivo; conditions: 8-week-old BALB/c mice, vs PBS
Protocol: Two types of dry eye syndrome mouse models were used to examine whether 1,5DQ instillation is effective for dry eye syndrome. The first mouse model is a desiccating stress model, and BALB/c mice were reared in a dry environment (humidity: 20 to 30%) while administering a drug that suppresses tear secretion (scopolamine hydrobromide 0.5 mg/0.2 mL) intraperitoneally three times a day. The second mouse model is a Sjögren's syndrome-related inflammatory dry eye syndrome mouse model, and NOD.B10.H2^b mice were used. […]
as §2
8-week-old BALB/c mice undergoing desiccating stress were divided into two groups, and (i) 5 μL of 1,5DQ (50 μg/μL) or (ii) 5 μL of PBS was instilled into both eyes of each mouse twice a day for 5 days, and then the degree of corneal epithelial defects and the amount of tear secretion were evaluated.

[7] = system: human corneal epithelial cells; assay: Apoptosis of corneal epithelial cells by annexin V/PI flow cytometry, hyperosmotic environment; type: cell-based; conditions: hyperosmotic environment (100 mM NaCl), 24 hours
Protocol: Corneal epithelial cells primarily cultured from human corneal limbal cells were treated with 100 mM NaCl for exposure to a hyperosmotic environment, and treated with 0, 10, 25, 50, or 100 μg/mL of 1,5DQ for 24 hours, and the degree of apoptosis was measured by performing flow cytometry after annexin V (ANX) and propidium iodide (PI) staining.

IL-6 = IL-6 transcripts in eyelids (meibomian glands) by real-time RT PCR, Sjögren's syndrome-related model; type: in vivo, mouse; conditions: 12-week-old NOD.B10.H2^b mice; 5 μL of 1,5DQ (50 μg/μL) twice a day for 5 days; vs PBS
Protocol: as §3

[8] = system: tumor necrosis factor-α (TNF-α); assay: TNF-α transcripts in eyelids (meibomian glands) by real-time RT PCR, Sjögren's syndrome-related model; type: in vivo, mouse; conditions: 12-week-old NOD.B10.H2^b mice; 5 μL of 1,5DQ (50 μg/μL) twice a day for 5 days; vs PBS
Protocol: as §3

[9] = 12-week-old NOD.B10.H2^b mice, 5 μL of 1,5DQ (50 μg/μL) instilled twice a day for 5 days, vs PBS (Example 1-2)

1,5-O-dicaffeoylquinic acid [1,5DQ]
area of the meibomian glands in the lower eyelid (meibomian glands): significantly increased
cell viability (MTT) ([1]; hyperosmotic environment (100 mM NaCl), 10 μg/mL 1,5DQ): significantly increased
cell viability (MTT) ([1]; hyperosmotic environment (100 mM NaCl), 25 μg/mL 1,5DQ): significantly increased
cell viability (MTT) ([1]; hyperosmotic environment (100 mM NaCl), 50 μg/mL 1,5DQ): significantly increased
cell viability (MTT) ([1]; hyperosmotic environment (100 mM NaCl), 100 μg/mL 1,5DQ): significantly increased
cell viability (MTT) ([1]; normal corneal epithelial cells not treated with NaCl, 25 μg/mL 1,5DQ): significantly increased
cell viability (MTT) ([1]; normal corneal epithelial cells not treated with NaCl, 50 μg/mL 1,5DQ): significantly increased
expression of SCD1 in the eyelids [2]: significantly increased
interleukin 1β expression, extraorbital lacrimal gland (interleukin 1β (IL-1β)): significant reduced
interleukin 1β expression, intraorbital lacrimal gland (interleukin 1β (IL-1β)): significant reduced
expression of SCD3 in the eyelids (SCD3): significantly increased
number of CD3-positive immune cells deposited in the lacrimal glands [3]: significantly decreased
amount of tear secretion [4, 9]: significantly increased
degree of corneal epithelial defects [4, 9]: significantly reduced
amount of tear secretion, dependence on concentration ([4]; Example 4, NOD.B10.H2^b mice, 5, 50 or 500 μg/μL 1,5DQ, 5 μL twice a day for 5 days): increasing trend depending on concentration
corneal epithelial defects ([4]; Example 4, NOD.B10.H2^b mice, 5 μL of 1,5DQ 50 μg/μL twice a day for 5 days): significantly reduced
corneal epithelial defects ([4]; Example 4, NOD.B10.H2^b mice, 5 μL of 1,5DQ 500 μg/μL twice a day for 5 days): significantly reduced
amount of tear secretion, difference between the groups ([4]; Example 4, NOD.B10.H2^b mice, PBS, 5, 50 or 500 μg/μL 1,5DQ, 5 μL twice a day for 5 days): no statistically significant difference
MMP-9 expression in the meibomian glands of the eyelids [5]: significantly reduced
degree of corneal epithelial defects ([6]; 5 μL of 1,5DQ (50 μg/μL) instilled in both eyes twice a day for 5 days): significantly reduced
amount of tear secretion ([6]; 5 μL of 1,5DQ (50 μg/μL) instilled twice a day for 5 days): significantly increased
apoptosis level of the corneal epithelial cells ([7]; 10 μg/mL 1,5DQ): significantly reduced
apoptosis level of the corneal epithelial cells ([7]; 25 μg/mL 1,5DQ): significantly reduced
apoptosis level of the corneal epithelial cells ([7]; 50 μg/mL 1,5DQ): significantly reduced
IL-6 expression in the meibomian glands of the eyelids (IL-6): significantly reduced
TNF-α expression in the meibomian glands of the eyelids [8]: significantly reduced
